Test results from patent US11059795B2, “Androgen receptor modulators and methods for their use” (ESSA Pharma, Inc., priority 2018, dated 2021).
Where a name gives a salt, the structure may show the parent alone.

Key:
[1] = molecular target: T1, androgen receptor (AR) (Homo sapiens, UniProt P10275, T878A); experiment: Androgen-induced PSA (6.1 kb)-luciferase reporter assay in LNCaP cells; assay type: cell-based; conditions: LNCaP cells transfected with PSA (6.1 kb)-luciferase reporter, R1881 1 nM, 24 h; read-out: PSA-Luc IC50 Range
T1 construct: LNCaP cells were transiently transfected with the PSA (6.1 kb)-luciferase reporter for 24 h; endogenous in cells; host or cells: LNCaP
T1 sequence (P10275 1-920 T878A): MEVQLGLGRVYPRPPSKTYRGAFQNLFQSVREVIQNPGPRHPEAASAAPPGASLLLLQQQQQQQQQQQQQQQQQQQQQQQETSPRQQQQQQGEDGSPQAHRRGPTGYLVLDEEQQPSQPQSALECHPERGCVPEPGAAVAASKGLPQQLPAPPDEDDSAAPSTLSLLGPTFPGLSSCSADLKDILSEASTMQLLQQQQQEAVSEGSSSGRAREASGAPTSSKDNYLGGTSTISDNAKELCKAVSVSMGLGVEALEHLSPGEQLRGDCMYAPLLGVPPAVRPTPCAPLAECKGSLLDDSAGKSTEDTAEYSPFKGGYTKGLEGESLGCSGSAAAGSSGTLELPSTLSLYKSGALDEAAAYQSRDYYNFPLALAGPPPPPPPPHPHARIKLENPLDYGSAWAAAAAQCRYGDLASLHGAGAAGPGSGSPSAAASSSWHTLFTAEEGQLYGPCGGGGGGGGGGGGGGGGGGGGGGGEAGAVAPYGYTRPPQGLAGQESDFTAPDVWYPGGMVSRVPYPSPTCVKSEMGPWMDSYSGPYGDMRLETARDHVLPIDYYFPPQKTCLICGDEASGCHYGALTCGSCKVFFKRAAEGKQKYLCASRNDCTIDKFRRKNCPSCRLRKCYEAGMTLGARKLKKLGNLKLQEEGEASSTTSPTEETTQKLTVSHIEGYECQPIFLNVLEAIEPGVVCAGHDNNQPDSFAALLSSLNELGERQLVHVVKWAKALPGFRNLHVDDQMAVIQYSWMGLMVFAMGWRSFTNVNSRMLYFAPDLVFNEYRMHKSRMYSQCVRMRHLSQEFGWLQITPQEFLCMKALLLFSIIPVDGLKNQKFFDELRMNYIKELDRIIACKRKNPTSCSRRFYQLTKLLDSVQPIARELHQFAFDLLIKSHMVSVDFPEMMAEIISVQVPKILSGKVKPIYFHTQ
Method: The PSA (6.1 kb)-luciferase reporter contains functional AREs (androgen response elements) to which AR binds in response to androgen to induce luciferase activity.
Cells were lysed using Passive Lysis Buffer (Promega) and then collected into V-bottom 96-well tissue culture plates. Lysates were centrifuged at 4° C. for 5 minutes at 3000 rpm. To measure luminescence of LNCaP cell lysates the Firefly Luciferase Assay System (Promega) was employed, according to manufacturer's protocol. Relative luminescence units (RLU) in cell lysates were detected for 10 seconds using Promega GloMax-Multi Detection Luminometer (Promega). Values were normalized to protein content. GraphPad Prism graphing software was used to calculate IC50 values.
Comparisons between treatment and control groups were compared using Two-Way ANOVA with post-hoc Dunnett's and Tukey's tests. Differences were considered statistically significant at P values less than 0.05.

[2] = Microsomal stability assay, human liver microsomes; assay type: in vitro ADME; conditions: pH 7.4, 1 μM compound, 0.5 mg/mL protein, 37° C., read-out: HLM +/− NADPH: Clint (μL/min/mg protein)
Method: (§1) Microsomal stability assay is a widely used in vitro model to characterize the metabolic conversion by phase I enzymes, such as cytochrome P450 (CYP) enzymes. Since metabolism is known to be highly variable in different species, microsomal stability assay is commonly run in multiple species. Metabolic stability of testing compound can be evaluated using human, rat, mouse, or other animal liver or intestine microsomes to predict intrinsic clearance.
(§2) The assay was carried out in 96-well microtiter plates at 37° C. Reaction mixtures (25 μL) contained a final concentration of 1 μM test compound, 0.5 mg/mL liver microsomes protein, and 1 mM NADPH and/or 1 mM UDPGA (with alamethicin) in 100 mM potassium phosphate, pH 7.4 buffer with 3 mM MgCl2. The incubation was done with N=1, but duplicate incubation at each time point can be prepared if necessary. At each of the time points (for example, 0, 15, 30, and 60 minutes), 150 μL of quench solution (100% acetonitrile with 0.1% formic acid) with internal standard was transferred to each well. Besides the zero minute controls, mixtures containing the same components except the NADPH can also be prepared as the negative control. Verapamil was included as a positive control to verify assay performance. Plates were sealed, vortexed, and centrifuged at 4° C. for 15 minutes at 4000 rpm. The supernatant is transferred to fresh plates for LC/MS/MS analysis.
(§3) Summarized conditions: [Compound]=[…], [LM]=0.5 mg/mL, [NADPH]=1 mM and/or [UDPGA]=1 mM, Buffer=100 mM Potassium Phosphate, pH 7.4 with 3 mM MgCl2, Time=0, 15, 30, and 60 min, and Temperature=37° C.
(§4) All samples were analyzed on LC/MS/MS using an AB Sciex API 4000 instrument, coupled to a Shimadzu LC-20AD LC Pump system. Analytical samples were separated using a Waters Atlantis T3 dC18 reverse phase HPLC column (20 mm×2.1 mm) at a flow rate of 0.5 mL/min. The mobile phase consisted of 0.1% formic acid in water (solvent A) and 0.1% formic acid in 100% acetonitrile (solvent B).
(§5) The extent of metabolism is calculated as the disappearance of the test compound, compared to the 0-min time incubation. Initial rates are calculated for the compound concentration and used to determine half-life (t½) values and subsequently, the intrinsic clearance (Clint). Clint=(0.693)(1/t½ (min))(g of liver/kg of body weight)(mL incubation/mg of microsomal protein)(45 mg of microsomal protein/g of liver weight)

[3] = Microsomal stability assay, mouse liver microsomes; assay type: in vitro ADME; conditions: mouse, liver microsomes, pH 7.4, mouse liver microsomes, 1 μM compound, 0.5 mg/mL protein, 37° C.; read-out: MLM +30/− NADPH: Clint (μL/min/mg protein)
Method: as §1, §2, §3, §4, §5

Row | SMILES | IC50 [1] [nM] | microsomal CLint at 1 μM [2] [µL/min/mg] | microsomal CLint at 1 μM [3] [µL/min/mg]
1 | CC(C)(c1ccc(NCc2ocnc2S(C)(=O)=O)cc1)c1cc(Cl)c(OCCCl)c(Cl)c1 [Compound A32, 4-(2-(3,5-dichloro-4-(2-chloroethoxy)phenyl)propan-2-yl)-N-((4-(methylsulfonyl)oxazol-5-yl)methyl)aniline Hydrochloride] | > 2000 | 12 to 48 | ≥ 48
2 | CC(C)(c1ccc(OCc2ocnc2S(C)(=O)=O)cc1)c1cc(Cl)c(OCCCCl)c(Cl)c1 [Compound A3, 5-[[4-[1-[3,5-dichloro-4-(3-chloropropoxy)phenyl]-1-methyl-ethyl]phenoxy]methyl]-4-methylsulfonyl-oxazole] | 500 to 2000 | < 12 | < 12
3 | Cc1nc(S(C)(=O)=O)c(COc2ccc(C(C)(C)c3cc(Cl)c(OCCCl)c(Cl)c3)cc2)o1 [Compound A34] | 500 to 2000 | < 12 | 12 to 48
4 | CC(C)(c1ccc(NC(=O)c2coc(NS(C)(=O)=O)n2)cc1)c1cc(Cl)c(OCCCl)c(Cl)c1 [Compound A49, N-(4-(2-(3,5-Dichloro-4-(2-chloroethoxy)phenyl)propan-2-yl)phenyl)-2-(methylsulfonamido)oxazole-4-carboxamide] | > 2000 | 12 to 48 | < 12
5 | CC(C)(c1ccc(OCc2cnc(S(C)(=O)=O)o2)cc1)c1cc(Cl)c(OCCCl)c(Cl)c1 [Compound A57] | < 500 | 12 to 48 | ≥ 48
6 | CC(C)(c1ccc(OCc2ocnc2C#N)cc1)c1cc(Cl)c(OCCCl)c(Cl)c1 [Compound A65] | 500 to 2000 | 12 to 48 | 12 to 48
7 | CC(C)(c1cc(Cl)c(OCCCl)c(Cl)c1)c1ccc(OCc2ocnc2S(C)(=O)=O)c(C#N)c1 [Compound A30] | 500 to 2000 | 12 to 48 | 12 to 48
8 | CC(C)(c1ccc(OCc2nccc(NS(C)(=O)=O)n2)cc1)c1cc(Cl)c(OCCCl)c(Cl)c1 [Compound A42] | 500 to 2000 | < 12 | < 12
9 | CC(C)(c1ccc(OCc2ocnc2C(N)=O)cc1)c1cc(Cl)c(OCCCl)c(Cl)c1 [Compound A45] | 500 to 2000 | < 12 | < 12
10 | CC(C)(c1cnc(NCc2ocnc2S(C)(=O)=O)nc1)c1cc(Cl)c(OCCCl)c(Cl)c1 [Compound A27] | > 2000 | < 12 | ≥ 48
11 | CC(C)(c1ccc(OCc2nnc(S(C)(=O)=O)o2)cc1)c1cc(Cl)c(OCCCCl)c(Cl)c1 [Compound A7, 2-((4-(2-(3,5-dichloro-4-(3-chloropropoxy)phenyl)propan-2-yl)phenoxy)methyl)-5-(methylsulfonyl)-1,3,4-oxadiazole] | > 2000 | ≥ 48 | 

Results, then the molecule that gave them:

Row | IC50 [1] [nM] | microsomal CLint at 1 μM [2] [µL/min/mg] | microsomal CLint at 1 μM [3] [µL/min/mg] | SMILES
12 | 500 to 2000 | 12 to 48 | ≥ 48 | CN1C(=O)N(Cc2ccc(C(C)(C)c3cc(Cl)c(OCCCCl)c(Cl)c3)cc2)C(=O)C1(C)C [Compound B1]
13 | > 2000 | < 12 | < 12 | CC(C)(c1ccc(N2C(=O)N(S(C)(=O)=O)C(C)(C)C2=O)cc1)c1cc(Cl)c(OCCCl)c(Cl)c1 [Compound B7]
14 | > 2000 | < 12 | 12 to 48 | CC(C)(c1cc(Cl)c(OCCCl)c(Cl)c1)c1ccc(N2C(=O)N(S(C)(=O)=O)C(C)(C)C2=O)c(C#N)c1 [Compound B10]
15 | < 500 | < 12 | < 12 | CC(C)(c1ccc(OCc2coc(S(C)(=O)=O)n2)cc1)c1cc(Cl)c(OCCCl)c(Cl)c1 [Compound A68]
16 |  | < 12 | < 12 | COc1c(Cl)cc(C(C)(C)c2ccc(OCc3coc(NS(C)(=O)=O)n3)cc2)cc1C#N [Compound A161]
17 | 500 to 2000 | < 12 | 12 to 48 | CC(C)(c1ccc(OCc2nc(C#N)co2)cc1)c1cc(Cl)c(OCCCl)c(C#N)c1 [Compound A174]
18 | 500 to 2000 | < 12 | < 12 | Cn1c(COc2ccc(C(C)(C)c3cc(Cl)c(OCCCl)c(Cl)c3)cc2)cnc1S(C)(=O)=O [Compound A78]
19 | 500 to 2000 | < 12 | < 12 | CC(C)(c1ccc(C(=O)Nc2ccnc(NS(C)(=O)=O)n2)cc1)c1cc(Cl)c(OCCCl)c(Cl)c1 [Compound A189]
20 | > 2000 | < 12 | < 12 | CC(C)(c1ccc(OCc2nc(C(N)=O)co2)cc1)c1cc(Cl)c(OCCCl)c(C#N)c1 [Compound A173]
21 | 500 to 2000 | < 12 | < 12 | CC(C)(c1ccc(NC(=O)c2ocnc2S(C)(=O)=O)cc1)c1cc(Cl)c(OCCCl)c(Cl)c1 [Compound A73]
22 | 500 to 2000 | 12 to 48 | ≥ 48 | CC(O)(c1ccc(OCc2ocnc2S(C)(=O)=O)cc1)c1cc(Cl)c(OCCCl)c(C#N)c1 (stereo not drawn) [Compound A77]
23 | < 500 | 12 to 48 | 12 to 48 | Cc1cc(C(C)(C)c2ccc(CN3C(=O)N(S(C)(=O)=O)C(C)(C)C3=O)c(C(N)=O)c2)cc(Cl)c1OCCCl [Compound B9]
24 | 500 to 2000 | < 12 | < 12 | CC(C)(c1ccc(CN2C(=O)N(S(C)(=O)=O)C(C)(C)C2=O)cc1)c1cc(Cl)c(OCCCl)c(Cl)c1 [Compound B3, 3-(4-(2-(3,5-Dichloro-4-(2-chloroethoxy)phenyl)propan-2-yl)benzyl)-5,5-dimethyl-1-(methylsulfonyl)imidazolidine-2,4-dione]
25 | < 500 | 12 to 48 |  | CC(C)(c1ccc(OCc2n[nH]cc2NS(=O)(=O)C(F)(F)F)cc1)c1cc(Cl)c(OCCCl)c(Cl)c1 [Compound A106]
